From the supplement of paper PMC10331698
± gives the standard deviation of the averaged measurements.

Assays:
Test in all cases: level (log10 ratio to DMSO vehicle control); higher = higher biomarker level / cell amount than vehicle control
[1] = compound: C=C(C)C(=O)OCC(F)(F)C(F)(F)C(F)(F)F [2,2,3,3,4,4,4-Heptafluorobutyl methacrylate]; conditions: in DMSO
Description: (§1)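 BioMAP Diversity Plus panel of 12 human primary cell co-culture systems (3C, 4H, LPS, SAg, BT, BF4T, BE3C, CASM3C, HDF3CGF, KF3CT, MyoF, Mphg). Compounds were added 1 h before stimulation and left for 24 h (MyoF 48 h; BT 72 h for soluble read-outs or 6 d for IgG). Biomarkers were read by ELISA, cytotoxicity by SRB, PBMC viability and proliferation by Alamar Blue. Each well value was divided by the mean of 8 DMSO control wells on the same plate and log10 transformed; duplicate blinded samples were tested at 4 concentrations.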

[2] = compound: Cc1ccc(S(=O)(=O)OCC(F)(F)C(F)(F)C(F)(F)C(F)(F)C(F)(F)C(F)F)cc1 [1H,1H,7H-Perfluoroheptyl 4-methylbenzenesulfonate]; conditions: in DMSO
Description: as §1

[3] = compound: FC(F)(F)C(F)(F)C(F)(F)C(F)(F)CCI [1H,1H,2H,2H-Perfluorohexyl iodide]; conditions: in DMSO
Description: as §1

[4] = compound: O=C(Cl)C(F)(F)C(F)(F)C(F)(F)C(=O)Cl [Hexafluoroglutaryl chloride]; conditions: in DMSO
Description: as §1

[5] = compound: O=S(=O)(OCC(F)(F)F)C(F)(F)C(F)(F)C(F)(F)C(F)(F)F [2,2,2-Trifluoroethyl perfluorobutanesulfonate]; conditions: in DMSO
Description: as §1

[6] = compound: OCC(F)(F)C(F)(F)C(F)(F)C(F)(F)C(F)(F)C(F)(F)C(F)(F)C(F)(F)C(F)(F)C(F)(F)C(F)(F)F [11:1 Fluorotelomer alcohol]; conditions: in DMSO
Description: as §1

[7] = compound: OCCCC(F)(F)C(F)(F)C(F)(F)C(F)(F)C(F)(F)C(F)(F)C(F)(F)C(F)(F)F [3-(Perfluorooctyl)propanol]; conditions: 6700 nM; in DMSO
Description: as §1

Test System	level (log10) ([1]; 6700 nM)	level (log10) ([1]; 20000 nM)	level (log10) ([1]; 60000 nM)	level (log10) ([2]; 6700 nM)	level (log10) ([2]; 20000 nM)	level (log10) ([2]; 60000 nM)	level (log10) ([3]; 6700 nM)	level (log10) ([3]; 20000 nM)	level (log10) ([3]; 60000 nM)	level (log10) ([4]; 6700 nM)	level (log10) ([4]; 20000 nM)	level (log10) ([4]; 60000 nM)	level (log10) ([5]; 6700 nM)	level (log10) ([5]; 20000 nM)	level (log10) ([5]; 60000 nM)	level (log10) ([6]; 1100 nM)	level (log10) ([6]; 3300 nM)	level (log10) ([6]; 10000 nM)	level (log10) [7]
lMphg:M-CSF	-0.011 ± 0.0085	-0.02 ± 0.02	-0.021 ± 0.0071	-0.0295 ± 0.005	-0.0305 ± 0.0035	-0.016	-0.018 ± 0.017	-0.0275 ± 0.018	0.0185 ± 0.0035	0.011	-0.021 ± 0.031	0.018 ± 0.011	0.035 ± 0.017	0.014 ± 0.018	-0.006 ± 0.021	-0.0045 ± 0.005	-0.0195 ± 0.0078	-0.0735 ± 0.016	-0.0255 ± 0.00071
BE3C:SRB	-0.003 ± 0.011	-0.0095 ± 0.0064	-0.001 ± 0.0071	-0.006 ± 0.0028	-0.008 ± 0.0042	-0.0145 ± 0.0035	-0.003 ± 0.0028	-0.0035 ± 0.00071	0.002 ± 0.011	0.0045 ± 0.0092	0.0065 ± 0.013	0.0115 ± 0.0035	0 ± 0.0071	0.004 ± 0.0042	0.005	-0.03 ± 0.014	-0.0485 ± 0.005	-0.0235 ± 0.0064	-0.002 ± 0.0028
CASM3C:Proliferation	-0.012 ± 0.027	-0.0015 ± 0.0035	0.0215 ± 0.012	-0.009 ± 0.031	0.035 ± 0.064	-0.0075 ± 0.025	-0.01 ± 0.0071	-0.0155 ± 0.016	-0.0535 ± 0.0064	0.004 ± 0.0042	-0.012 ± 0.027	-0.031 ± 0.03	0.0265 ± 0.0064	-0.018 ± 0.027	-0.026 ± 0.03	0.0145 ± 0.0078	-0.0185 ± 0.005	0.0565 ± 0.0092	-0.026 ± 0.033
lMphg:SRB-Mphg	0.003	-0.0115 ± 0.016	0.0155 ± 0.016	0.033 ± 0.0028	-0.013 ± 0.03	0.0155 ± 0.036	-0.0005 ± 0.03	-0.004 ± 0.031	0.0005 ± 0.025	0.007 ± 0.0057	0.0065 ± 0.005	0.0125 ± 0.011	-0.005 ± 0.0071	-0.019 ± 0.014	-0.024 ± 0.031	-0.039 ± 0.0014	-0.105 ± 0.0085	-0.205 ± 0.0085	-0.049 ± 0.072
lMphg:CD106/VCAM-1	0.0005 ± 0.0021	0.005 ± 0.04	0.0115 ± 0.026	-0.0105 ± 0.029	0.0045 ± 0.0021	0 ± 0.0071	0.0015 ± 0.018	-0.0005 ± 0.016	0.009 ± 0.013	-0.0075 ± 0.0078	-0.0015 ± 0.037	-0.0145 ± 0.042	-0.0355 ± 0.015	-0.0215 ± 0.028	-0.055 ± 0.024	0.0045 ± 0.005	-0.001 ± 0.0014	-0.0015 ± 0.0035	0.001 ± 0.0099
MyoF:PAI-I	-0.001 ± 0.0085	0.008 ± 0.0085	0.015 ± 0.0014	-0.007 ± 0.0085	-0.0085 ± 0.013	-0.019 ± 0.013	0.0085 ± 0.0064	-0.003 ± 0.0071	0.0085 ± 0.03	-0.001 ± 0.0085	0.02 ± 0.013	0.01 ± 0.0042	-0.0115 ± 0.0092	-0.011 ± 0.018	-0.0065 ± 0.018	0.009 ± 0.0042	0.014 ± 0.013	0.0205 ± 0.0064	-0.0075 ± 0.021
lMphg:CD62E/E-Selectin	-0.0085 ± 0.015	-0.0005 ± 0.013	-0.031 ± 0.0028	-0.0225 ± 0.0064	0.022 ± 0.0014	0.0635 ± 0.019	-0.021 ± 0.0071	-0.0105 ± 0.026	0.0315 ± 0.0064	-0.0295 ± 0.016	0.0025 ± 0.018	-0.0365 ± 0.022	0.02 ± 0.031	0.0255 ± 0.033	-0.0435 ± 0.0064	0.0715 ± 0.011	0.084 ± 0.024	0.118 ± 0.012	-0.0425 ± 0.066
HDF3CGF:PAI-I	-0.045 ± 0.011	-0.018 ± 0.1	0.0135 ± 0.0035	-0.004 ± 0.0042	-0.009 ± 0.011	0.0065 ± 0.036	0.002 ± 0.028	0.0045 ± 0.0035	-0.0105 ± 0.044	-0.05 ± 0.073	-0.0215 ± 0.083	-0.0155 ± 0.043	-0.0125 ± 0.0092	-0.02 ± 0.024	-0.021 ± 0.0014	0.037 ± 0.0014	0.0515 ± 0.012	0.029 ± 0.075	-0.391 ± 0.07
CASM3C:M-CSF	0.003 ± 0.016	0.0245 ± 0.019	0.024 ± 0.0099	-0.024 ± 0.0028	-0.0445 ± 0.013	0.007 ± 0.051	-0.013 ± 0.0014	-0.02 ± 0.0014	0.0035 ± 0.049	-0.001 ± 0.0028	0.0095 ± 0.057	0.03 ± 0.051	-0.011 ± 0.0057	0.004 ± 0.0042	0.0365 ± 0.03	-0.026 ± 0.044	0.006 ± 0.031	0.017 ± 0.0099	-0.0325 ± 0.025
HDF3CGF:M-CSF	0.0085 ± 0.00071	0.0255 ± 0.0078	0.0135 ± 0.029	-0.0385 ± 0.0021	-0.0225 ± 0.036	-0.0095 ± 0.013	-0.015 ± 0.0085	-0.0295 ± 0.0064	-0.074 ± 0.014	-0.003 ± 0.02	-0.0035 ± 0.016	0 ± 0.0099	-0.009 ± 0.0057	0.0105 ± 0.022	0.0195 ± 0.005	0.0115 ± 0.016	0.0095 ± 0.032	-0.003 ± 0.021	-0.258 ± 0.0092
MyoF:bFGF	0.007 ± 0.0099	-0.01 ± 0.0085	0.007 ± 0.024	-0.0005 ± 0.0021	0.012 ± 0.0071	0.009 ± 0.017	0.0095 ± 0.021	0.0205 ± 0.026	0.0285 ± 0.042	0.0045 ± 0.0035	-0.0035 ± 0.0078	0.0135 ± 0.0035	-0.015 ± 0.0042	-0.0015 ± 0.03	-0.0195 ± 0.00071	0.002 ± 0.0071	0.008 ± 0.014	0.004 ± 0.021	-0.034 ± 0.017
KF3CT:CD54/ICAM-1	0.0015 ± 0.016	-0.003 ± 0.016	0.0085 ± 0.005	0.003 ± 0.0057	0.001 ± 0.0042	0 ± 0.0042	-0.0045 ± 0.025	0.016 ± 0.016	-0.005 ± 0.027	-0.013 ± 0.0014	-0.002 ± 0.0057	-0.002 ± 0.0028	0.015 ± 0.03	-0.0055 ± 0.0092	-0.006 ± 0.013	-0.014 ± 0.0071	-0.0295 ± 0.0021	-0.0045 ± 0.012	-0.062 ± 0.024
CASM3C:PAI-I	-0.003 ± 0.0042	0.0005 ± 0.0021	0.001 ± 0.0042	-0.004 ± 0.0028	-0.007 ± 0.0085	-0.008 ± 0.016	0.0135 ± 0.022	0.0165 ± 0.022	0.0125 ± 0.044	-0.0135 ± 0.021	0.0025 ± 0.0078	0.0065 ± 0.0021	-0.0075 ± 0.0092	0.0015 ± 0.00071	0.0035 ± 0.0021	-0.001 ± 0.0071	-0.0055 ± 0.005	-0.0005 ± 0.015	-0.0165 ± 0.0092
MyoF:Collagen IV	-0.0185 ± 0.019	0.004 ± 0.065	0.014 ± 0.075	0.0145 ± 0.022	0.0265 ± 0.046	0.0665 ± 0.077	0.011 ± 0.031	0.024 ± 0.017	0.021 ± 0.05	-0.021 ± 0.099	-0.0295 ± 0.11	-0.0075 ± 0.069	-0.0175 ± 0.044	-0.014 ± 0.038	0.0205 ± 0.056	-0.0365 ± 0.05	-0.0255 ± 0.028	-0.01 ± 0.028	-0.0385 ± 0.029
CASM3C:CD106/VCAM-1	0.0205 ± 0.013	-0.006 ± 0.04	0.001 ± 0.02	0.001 ± 0.0028	-0.011 ± 0.0014	0.0135 ± 0.005	-0.023 ± 0.016	-0.057 ± 0.0057	-0.031 ± 0.075	-0.017 ± 0.03	-0.013 ± 0.024	0.0025 ± 0.047	-0.027 ± 0.014	-0.038 ± 0.031	-0.042 ± 0.083	-0.004 ± 0.024	0 ± 0.023	-0.0105 ± 0.019	-0.0895 ± 0.019
